Data published in BigSolDB 2.1.

Q: Which solubility (mole fraction) (in DMF, 293.15 K) does the source give for `NC(N)=C([N+](=O)[O-])[N+](=O)[O-]` here?
A: 0.0918

Q: And the solubility (mole fraction) (in DMF, 303.15 K)?
A: 0.102

Q: What about the solubility (mole fraction) (in DMF, 313.15 K) of the same molecule?
A: 0.11

Q: And the solubility (mole fraction) (in DMF, 323.15 K)?
A: 0.119

Q: What about the solubility (mole fraction) (in DMF, 333.15 K) of the same molecule?
A: 0.129

Q: And the solubility (mole fraction) (in DMF, 343.15 K)?
A: 0.137

Q: And the solubility (mole fraction) (in DMF, 353.15 K)?
A: 0.148

Q: And the solubility (mole fraction) (in DMF, 363.15 K)?
A: 0.162

Q: What about the solubility (mole fraction) (in DMSO, 293.15 K) of the same molecule?
A: 0.183

Q: What about the solubility (mole fraction) (in DMSO, 303.15 K) of the same molecule?
A: 0.191

Q: What about the solubility (mole fraction) (in DMSO, 313.15 K) of the same molecule?
A: 0.199

Q: And the solubility (mole fraction) (in DMSO, 323.15 K)?
A: 0.207

Q: And the solubility (mole fraction) (in DMSO, 333.15 K)?
A: 0.217

Q: And the solubility (mole fraction) (in DMSO, 343.15 K)?
A: 0.229

Q: And the solubility (mole fraction) (in DMSO, 353.15 K)?
A: 0.242

Q: What about the solubility (mole fraction) (in DMSO, 363.15 K) of the same molecule?
A: 0.254

Q: And the solubility (mole fraction) (in NMP, 293.15 K)?
A: 0.168

Q: And the solubility (mole fraction) (in NMP, 303.15 K)?
A: 0.178

Q: And the solubility (mole fraction) (in NMP, 313.15 K)?
A: 0.184

Q: What about the solubility (mole fraction) (in NMP, 323.15 K) of the same molecule?
A: 0.194

Q: What about the solubility (mole fraction) (in NMP, 333.15 K) of the same molecule?
A: 0.203

Q: And the solubility (mole fraction) (in NMP, 343.15 K)?
A: 0.214

Q: And the solubility (mole fraction) (in NMP, 353.15 K)?
A: 0.227

Q: And the solubility (mole fraction) (in NMP, 363.15 K)?
A: 0.24
